The target of one assay is T1, Kv1.3 potassium channel (Homo sapiens, UniProt P22001).
T1 construct: expressed in transfected cells
The experiment in a line: Kv1.3 potassium channel blocker activity, automated whole-cell patch clamp (Patchliner). Format: cell-based. Particulars: Kv1.3 potassium channel, whole-cell patch clamp. The gist of the method: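 IC50 came from Hill-equation fits of peak and AUC currents from the final pulse at each concentration, normalized to compound-free control. Compounds applied consecutively at 30 nM to 100 μM (up to 0.3% DMSO) to Kv1.3-expressing CHO-K1 cells, P/4 leak subtraction. Pulses were +40 mV, 100 ms, from −90 mV holding, at 0.1 Hz on Patchliner.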

Another assay concerns the target T2, hERG channel (Homo sapiens, UniProt Q12809).
T2 construct: expressed in transfected cells
The experiment in a line: hERG electrophysiology, automated whole-cell patch clamp (Patchliner). It counts as cell-based. As to conditions: hERG channel, whole-cell patch clamp. The gist of the method: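 Currents were recorded at 0.3 Hz from −80 mV, stepping to +20 mV then −50 mV (300 ms each), in stably transfected CHO-K1 cells. Concentrations (30 nM–100 μM, up to 0.3% DMSO) were added sequentially without washout. IC50 came from Hill fits of control-normalized AUC/peak of each train's final pulse.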
(In general: hERG is a cardiac potassium channel; its block is linked to QT prolongation.)

Some results are limits rather than exact numbers.

T2 sequence (Q12809 whole entry): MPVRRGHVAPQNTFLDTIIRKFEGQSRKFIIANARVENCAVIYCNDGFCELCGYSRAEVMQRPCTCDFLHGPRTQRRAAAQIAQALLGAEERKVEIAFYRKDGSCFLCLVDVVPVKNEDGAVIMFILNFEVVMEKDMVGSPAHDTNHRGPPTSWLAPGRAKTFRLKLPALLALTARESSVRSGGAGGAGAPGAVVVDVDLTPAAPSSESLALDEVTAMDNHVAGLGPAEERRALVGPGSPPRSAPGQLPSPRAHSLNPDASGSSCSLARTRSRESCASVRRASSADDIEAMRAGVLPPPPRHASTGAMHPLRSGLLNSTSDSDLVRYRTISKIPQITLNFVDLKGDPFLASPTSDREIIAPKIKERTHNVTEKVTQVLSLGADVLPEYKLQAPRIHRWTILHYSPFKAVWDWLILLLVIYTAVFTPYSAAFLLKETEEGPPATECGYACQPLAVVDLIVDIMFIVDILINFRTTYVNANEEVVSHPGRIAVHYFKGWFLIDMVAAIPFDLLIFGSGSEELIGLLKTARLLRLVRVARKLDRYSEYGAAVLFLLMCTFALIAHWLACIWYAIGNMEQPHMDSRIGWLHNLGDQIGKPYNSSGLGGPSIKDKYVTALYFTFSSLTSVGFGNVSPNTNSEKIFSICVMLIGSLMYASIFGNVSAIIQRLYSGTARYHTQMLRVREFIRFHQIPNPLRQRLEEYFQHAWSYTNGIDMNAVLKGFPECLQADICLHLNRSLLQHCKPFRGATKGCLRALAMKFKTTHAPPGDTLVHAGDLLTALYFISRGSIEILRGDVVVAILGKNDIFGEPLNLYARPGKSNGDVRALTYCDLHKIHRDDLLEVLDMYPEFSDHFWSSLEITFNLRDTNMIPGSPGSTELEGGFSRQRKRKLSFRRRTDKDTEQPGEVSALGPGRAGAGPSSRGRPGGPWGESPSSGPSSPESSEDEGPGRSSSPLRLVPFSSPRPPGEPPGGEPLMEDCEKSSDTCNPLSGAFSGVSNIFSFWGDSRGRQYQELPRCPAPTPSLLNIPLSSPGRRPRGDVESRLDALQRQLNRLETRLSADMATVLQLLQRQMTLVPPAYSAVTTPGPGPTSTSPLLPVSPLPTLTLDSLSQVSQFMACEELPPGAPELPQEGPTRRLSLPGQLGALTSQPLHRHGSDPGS
T1 sequence (P22001 whole entry): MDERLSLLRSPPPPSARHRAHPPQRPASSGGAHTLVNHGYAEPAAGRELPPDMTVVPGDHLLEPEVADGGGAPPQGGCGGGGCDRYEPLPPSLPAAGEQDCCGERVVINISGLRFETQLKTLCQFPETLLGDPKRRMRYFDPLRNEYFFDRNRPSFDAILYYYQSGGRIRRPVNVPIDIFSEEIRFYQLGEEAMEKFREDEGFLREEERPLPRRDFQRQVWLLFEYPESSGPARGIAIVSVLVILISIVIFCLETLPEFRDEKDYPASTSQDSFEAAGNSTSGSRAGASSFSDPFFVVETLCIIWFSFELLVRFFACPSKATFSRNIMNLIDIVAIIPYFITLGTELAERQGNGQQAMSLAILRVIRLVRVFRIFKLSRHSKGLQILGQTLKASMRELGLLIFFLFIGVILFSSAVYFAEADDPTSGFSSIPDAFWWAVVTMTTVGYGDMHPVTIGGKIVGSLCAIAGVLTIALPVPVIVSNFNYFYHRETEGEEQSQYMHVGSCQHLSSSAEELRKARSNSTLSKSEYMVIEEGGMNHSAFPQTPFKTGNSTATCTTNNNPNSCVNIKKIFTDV

Take `O=C1C(CN2CC(O)C2)OC[C@@H]2C[C@H](c3c(O)ccc(Cl)c3Cl)CCN12` (stereo partly drawn) [Compound 183, (8R,9aS)-8-(2,3-dichloro-6-hydroxyphenyl)-3-[(3-hydroxyazetidin-1-yl)methyl]-hexahydro-1H-pyrido[2,1-c][1,4]oxazin-4-one]: the IC50 is below 1 µM against Kv1.3 potassium channel and below 30 µM at hERG channel.

On to `O=C1O[C@H](CCO)[C@@H]2C[C@H](c3c(O)ccc(Cl)c3Cl)CN12` (single isomer, unassigned) [Compound 270], for which the values for the IC50 against Kv1.3 potassium channel and on hERG channel were below 1 µM and below 30 µM, respectively.

By IC50 is commonly meant the concentration at which inhibition is half-maximal. Higher therefore signals weaker potency.
